By Ki is commonly meant the dissociation constant of the complex between target and ligand, obtained from inhibition or displacement. A high value points to weaker binding. The term IC50 denotes the midpoint of a concentration-inhibition curve. A higher IC50 goes with a need for much substance.

Experimental findings from ChEMBL document CHEMBL1123653 (J Med Chem, 1987) are described below.

The target in experiment [1] is T1, Serotonin 2 (5-HT2) receptor (Rattus norvegicus, UniProt P30994+P08909+P14842).
The target in experiment [2] is T2, 5-hydroxytryptamine receptor 1A (Rattus norvegicus, UniProt P19327).
T2 sequence (P19327 whole entry): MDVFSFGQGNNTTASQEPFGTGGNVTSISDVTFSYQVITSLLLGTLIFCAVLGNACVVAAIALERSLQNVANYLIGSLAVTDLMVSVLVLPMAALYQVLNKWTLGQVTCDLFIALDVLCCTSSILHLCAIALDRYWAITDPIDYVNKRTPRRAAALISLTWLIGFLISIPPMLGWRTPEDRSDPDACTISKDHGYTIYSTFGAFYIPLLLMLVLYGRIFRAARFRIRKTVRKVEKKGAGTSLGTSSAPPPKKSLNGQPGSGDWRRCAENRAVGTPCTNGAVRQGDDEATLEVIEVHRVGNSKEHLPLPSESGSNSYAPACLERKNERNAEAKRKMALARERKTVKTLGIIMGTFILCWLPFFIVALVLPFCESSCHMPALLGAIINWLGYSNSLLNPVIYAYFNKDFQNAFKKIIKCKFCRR

Experiment [3] has as its target T3, 5-hydroxytryptamine receptor 1B (Rattus norvegicus, UniProt P28564).
The target in experiment [4] is T4, Serotonin 1 (5-HT1) receptor (Rattus norvegicus, UniProt P28564+P30940+P19327+P28565).
In experiment [5] the target is T1, Serotonin 2 (5-HT2) receptor. Briefly: Binding affinity to rat cortical membranes at 5-hydroxytryptamine 2 receptor binding site by using [3H]- DOB as a radioligand.
For experiment [6] the target is unchanged. Briefly: Binding affinity to rat cortical membranes at 5-hydroxytryptamine 2 receptor binding site by using [3H]- DOB as a radioligand.
Experiment [7] concerns the target T4, Serotonin 1 (5-HT1) receptor. Kind of experiment: Binding affinity towards 5-hydroxytryptamine 1 receptor was determined. The format is protein assay.
Experiment [8] concerns the target T1, Serotonin 2 (5-HT2) receptor. This is another data set of the same source.
The target of experiment [9] is T3, 5-hydroxytryptamine receptor 1B. This is another data set of the same source.
Description: Binding affinity towards 5-HT1B was determined
The target in experiment [10] is T1, Serotonin 2 (5-HT2) receptor. This is another data set of the same source.
The target is the same in experiment [11]. The source holds these as a separate data set.

SMILES strings stand for the structures.

T3 sequence (P28564 whole entry): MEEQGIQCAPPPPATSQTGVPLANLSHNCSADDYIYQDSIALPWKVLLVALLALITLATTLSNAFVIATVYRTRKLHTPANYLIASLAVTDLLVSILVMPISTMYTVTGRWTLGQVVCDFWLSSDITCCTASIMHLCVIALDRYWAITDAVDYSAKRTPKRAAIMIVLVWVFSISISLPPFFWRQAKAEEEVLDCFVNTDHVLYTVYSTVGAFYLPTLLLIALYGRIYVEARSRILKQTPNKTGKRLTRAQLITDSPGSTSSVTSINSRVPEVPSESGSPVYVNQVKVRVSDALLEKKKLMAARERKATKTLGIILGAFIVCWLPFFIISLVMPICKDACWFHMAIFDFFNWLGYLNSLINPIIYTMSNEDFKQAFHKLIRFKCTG

For `CN(C)CCc1c[nH]c2ccc(O)cc12` [BUFOTENINE], the Ki is 380 nM in [1], 259 nM in experiment [2] and 910 nM in experiment [3].

Turning to `CC(C)NCC(O)COc1cccc2[nH]ccc12` (single isomer, unassigned; (-)) [PINDOLOL], the Ki in experiment [2] came out at 20 nM.

In the case of `FC(F)(F)c1cccc(N2CCNCC2)c1`, the inhibitory constant (Ki) was 1950 nM in experiment [2], 20 nM in experiment [4] and 30 nM in experiment [3].

As for `NCCc1c[nH]c2ccccc12` [TRYPTAMINE], the Ki was determined as 2895 nM in experiment [1], 170 nM in [2] and 50 nM in [5].

In the case of `COc1cc(C[C@H](C)N)c(OC)cc1I`, the Ki in experiment [1] is listed as 35 nM; in [4] it was 920 nM.

As for `CCCN(CCC)C1CCc2cccc(O)c2C1` (configuration not stated) [8-OH-DPAT], the Ki in [1] worked out at 5500 nM; in experiment [6], 700 nM.

In experiment [7], `c1ccc2cc(N3CCNCC3)ccc2c1` registered a Ki of 265 nM.

In experiment [7], `c1ccc(N2CCNCC2)cc1` [PHENYLPIPERAZINE] yielded a Ki of 135 nM.

Regarding `CNC(C)Cc1cc(OC)c(C)cc1OC` (configuration not stated), the values for the Ki in experiment [1] and in experiment [4] were 415 nM and 3870 nM, respectively.

On to `CN1C[C@@H](NS(=O)(=O)N(C)C)C[C@@H]2c3cccc4c3c(cn4C)C[C@H]21` [MESULERGINE], for which the Ki in [2] turned out to be 300 nM; in experiment [3], 13000 nM.

In the case of `COc1cc(OC)c(OC)cc1CC(C)N` (configuration not stated), the Ki in experiment [4] is reported as 46400 nM. That is a double-digit micromolar value.

As to `COc1cc([N+](=O)[O-])c(OC)cc1CC(C)N` (configuration not stated), the Ki in [1] was 300 nM; in experiment [4], 14100 nM.

Take `NCCc1c[nH]c2cccc(O)c12`: the results for the Ki in experiment [1], in [2] and in [3] were 725 nM, 95 nM and 1050 nM, respectively.

With `O=C(CCCN1CCC2(CC1)C(=O)NCN2c1ccccc1)c1ccc(F)cc1` [SPIPERONE], the Ki in experiment [2] came to 40 nM; in [4], 160 nM; in experiment [3] it was 4800 nM.

`O=C(c1ccc(F)cc1)C1CCN(CCn2c(=O)[nH]c3ccccc3c2=O)CC1` [KETANSERIN]: the Ki in [2] and in experiment [3] was 1900 nM each time.

Compound `COc1cc(CC(C)N)c(OC)cc1C` (configuration not stated) [DOM] returned a Ki in experiment [4] of 2890 nM.

On to `COc1ccc(CC(C)N)cc1` (configuration not stated) [PARA-METHOXYAMPHETAMINE], for which the Ki in experiment [1] came out at 33600 nM; in [4] it was 79400 nM.

As to `CN1C[C@H](CNC(=O)OCc2ccccc2)C[C@@H]2c3cccc4c3c(cn4C)C[C@H]21` [METERGOLINE], the Ki worked out at 6 nM in experiment [2], 20 nM in experiment [4] and 25 nM in [3].

On to `COc1ccc2[nH]cc(CCN(C)C)c2c1` [MEBUFOTENIN], for which the figures for the Ki in experiment [2], in experiment [4] and in experiment [3] were 20 nM, 50 nM and 90 nM, respectively.

Consider `CN(C)CCCSc1ccccc1NC(=O)/C=C/c1ccccc1` [CINANSERIN], for which the Ki was determined as 4 nM in experiment [1]; 3500 nM in experiment [4]; 4 nM in [5]; 4 nM in [8]; 1000 nM in experiment [3].

In the case of `COc1ccc(CC(C)N)cc1OC` (configuration not stated), the Ki in experiment [1] came out at 43300 nM; in experiment [4] it was 64600 nM.

As to `CCCc1cc(OC)c(CC(C)N)cc1OC` (configuration not stated), the Ki is listed as 69 nM in experiment [1] and 3170 nM in [4].

As for `COc1cc(CC(C)N)c(OC)cc1F` (configuration not stated), the Ki is reported as 1110 nM in [1] and 3370 nM in [4].

As to `c1ccc2c(N3CCNCC3)cccc2c1`, the Ki in experiment [7] was 5 nM. In other words, the single-digit nanomolar range.

Regarding `NCCc1c[nH]c2ccc(C(N)=O)cc12`, the Ki worked out at 0.2 nM in experiment [2] and 5 nM in [3].

In turn, `COc1cc(C[C@@H](C)N)c(OC)cc1C` had a Ki in [4] of 3550 nM.

For `COc1cc(C[C@@H](C)N)c(OC)cc1Br` (stereo in doubt; form 2), the Ki in experiment [4] was 4200 nM.

Take `Clc1cccc(N2CCNCC2)c1` [CHLOROPHENYLPIPERAZINE]: the Ki in [2] amounted to 2400 nM; in [3] it was 75 nM.

Take `COc1cc([N+](=O)[O-])c(OC)cc1C[C@@H](C)N`: the inhibition constant (Ki) in [1] is recorded as 210 nM; in experiment [4] it was 13200 nM.

In the case of `COc1ccc2[nH]cc(C3=CCNCC3)c2c1` [RU-24969], the Ki in [3] came to 4 nM.

Turning to `COc1cc(C[C@@H](C)N)c(OC)cc1Br` (stereo in doubt; form 1), the Ki in experiment [4] was determined as 4200 nM. This lies in the single-digit micromolar range.

Consider `O=C1c2ccccc2S(=O)(=O)N1CCCCN1CCN(c2ncccn2)CC1` [IPSAPIRONE], for which the IC50 turned out to be 26000 nM in [9] and 10000 nM in [10].

On to `NCCc1c[nH]c2cc(O)ccc12`, for which the values for the Ki in experiment [1], in experiment [2] and in [3] were 11500 nM, 1590 nM and 5890 nM, respectively.

For the compound `c1ccc2nc(N3CCNCC3)ccc2c1` [QUIPAZINE], the Ki amounted to 17 nM in [5], 645 nM in experiment [8] and 320 nM in experiment [3].

Compound `COc1cc(C[C@H](C)N)c(OC)cc1Br` had a Ki in [4] of 5000 nM.

`C[C@@H](N)Cc1ccc2c(c1)OCO2` came in with a Ki in experiment [4] of 13000 nM.

Consider `CN[C@H](C)Cc1cc(OC)c(C)cc1OC`, for which the Ki turned out to be 260 nM in [1] and 4300 nM in experiment [4].

Consider `Cc1nc2ccccn2c(=O)c1CCN1CCC(C(=O)c2ccc(F)cc2)CC1` [PIRENPERONE], for which the Ki in experiment [2] turned out to be 1700 nM; in [8] it was 1 nM; in [11], 0.3 nM; in experiment [3], 6600 nM.

`CNCCc1c[nH]c2ccc(O)cc12`: the Ki in [1] came out at 180 nM; in experiment [2] it was 5 nM; in [3] it was 45 nM.

For `CCc1cc(OC)c(CC(C)N)cc1OC` (configuration not stated), the Ki in [4] came out at 4570 nM.
